Experimental data from US10774385B2, “Method of determining risk of 5-fluorouracil toxicity” (Oxford University Innovation Limited, priority 2014, dated 2020).

Assays:
[1] = cited from earlier work
[2] = QUASAR2 trial: FU-related adverse events of capecitabine +/- bevacizumab graded by NCI CTCAE v3.0; type: in vivo, human
Procedure: The QUASAR2 study (http://www.octo-oxford.org.uk/alltrials/infollowup/q2.html; http://www.controlled-trials.com/ISRCTN45133151/) is a phase III randomised controlled trial of adjuvant capecitabine (Xeloda) (1250 mg/m2 twice daily d1-14 every 3 weeks, total of 8 cycles) +/−bevacizumab (7.5 mg/kg every three weeks) following resection of stage II/III CRC. Patients were entered into the study between July 2005 and December 2011 at 123 UK and 81 non-UK sites. Of 1119 patients with blood collected as of July 2010, 1046 were selected for study based on availability of clinical data and informed consent.
Adverse events were graded following each treatment cycle using the NCI Common Toxicity Criteria for Adverse Events (CTCAE) version 3.0. Common FU-related toxicities—diarrhea, nausea and vomiting, mucositis/stomatitis, neutropaenia, thrombocytopaenia, and HFS—were analysed individually and also in combination as “global” toxicity. Adverse events were categorised as low (CTCAE grade 0/1/2) and high (CTCAE grade 3/4/5 at any treatment cycle). Hypertension and proteinuria were clearly related to bevacizumab (˜10-fold higher incidence) and were not included in the analysis.
The QUASAR2 study was used as described in Example 1(a)(i). Of 1,119 patients with blood collected as of July 2010, 1,046 were selected for genetic study based on completeness of clinical data and informed consent.
Toxicity phenotype data were collected as part of QUASAR2 according the NCI Common Toxicity Criteria for Adverse Events (CTCAE) version 3.0. Maximum toxicity (0-4) at any treatment cycle was derived for each of the following individual FU-related toxicities: diarrhea, nausea and vomiting, mucositis/stomatitis, neutropaenia, thrombocytopaenia and HFS. A global measure of toxicity was derived, defined as the maximum individual toxicity score measured for each patient. Global and individual toxicities were analysed using two approaches: (i) a binary classification into low toxicity (grade 0-2) versus high (dose-limiting) toxicity (grade 3-4); and (ii) a quantitative measure of toxicity. In the latter, if <100 patients experienced a particular grade of toxicity, these patients were combined into a single bin with an adjacent grade. Specifically, grades 01v2v34 for global, diarrhea and HFS and 0v1234 for the other, rarer toxicity phenotypes were analysed.

[3] = Spanish Capecitabine Pharmacogenetic (SCP) Study: diarrhea and HFS by CTCAE v3.0; type: in vivo, human; conditions: capecitabine monotherapy
Procedure: Two additional data sets were used for validation of toxicity associations. The Spanish Capecitabine Pharmacogenetic (SCP) Study consisted of 233 colorectal and breast cancer patients prospectively recruited through several oncology units in Spain and treated with one of two capecitabine monotherapy regimens (standard: 1250 mg/m^2 twice daily d1-14 every 3 weeks; continuous: 800 mg/m^2 orally every 12 hours daily). HFS and diarrhea data Table 4 were collected according to CTCAEv3.0.

[4] = human, in vivo, 8 cycles of 3 weeks
[5] = patients selected for high and low toxicity

O=c1[nH]cc(F)c(=O)[nH]1 [FU, 5-fluorouracil]
Patients suffering substantial toxicities (Grade 3 or above, CTCAE v3.0) ([1]; FU chemotherapy, background statement): 10-30% | Mortality (Grade 5, CTCAE v3.0) associated with FU use ([1]; overall, literature): 0.5-1.0%

CCCCCOC(=O)Nc1nc(=O)n(C2OC(C)C(O)C2O)cc1F (stereo not drawn) [capecitabine, pentyl [1-(3,4-dihydroxy-5-methyltetrahydrofuran-2-yl)-5-fluoro-2-oxo-1H-pyrimidin-4-yl]carbamate]
Toxicity-induced deaths in QUASAR2 ([2]; QUASAR2, patients with grade 4 myelotoxicity): two | Patients, Global adverse event, CTCAE grade 0 [2, 4]: 75 | Patients, Global adverse event, CTCAE grade 1 [2, 4]: 241 | Patients, Global adverse event, CTCAE grade 2 [2, 4]: 375 | Patients, Global adverse event, CTCAE grade 3 [2, 4]: 334 | Patients, Neutropaenia, CTCAE grade 0 [2, 4]: 921 | Patients, Neutropaenia, CTCAE grade 1 [2, 4]: 71 | Patients, Neutropaenia, CTCAE grade 2 [2, 4]: 28 | Patients, Neutropaenia, CTCAE grade 3 [2, 4]: 17 | Patients, Thrombocytopaenia, CTCAE grade 0 [2, 4]: 961 | Patients, Thrombocytopaenia, CTCAE grade 1 [2, 4]: 67 | Patients, Thrombocytopaenia, CTCAE grade 2 [2, 4]: 9 | Patients, Thrombocytopaenia, CTCAE grade 3 [2, 4]: 0 | Patients, Thrombocytopaenia, CTCAE grade 4 [2, 4]: 4 | Patients, Vomiting, CTCAE grade 3 [2, 4]: 12 | Patients, Vomiting, CTCAE grade 4 [2, 4]: 3 | Patients, Diarrhoea, CTCAE grade 0 ([2]; human, in vivo, 24 weeks): 370 | Patients, Diarrhoea, CTCAE grade 1 ([2]; human, in vivo, 24 weeks): 388 | Patients, Diarrhoea, CTCAE grade 2 ([2]; human, in vivo, 24 weeks): 175 | Patients, Diarrhoea, CTCAE grade 3 ([2]; human, in vivo, 24 weeks): 99 | Patients, Diarrhoea, CTCAE grade 4 ([2]; human, in vivo, 24 weeks): 10 | Patients, Global adverse event, CTCAE grade 4 ([2]; human, in vivo, 24 weeks): 19 | Patients, Handfoot, CTCAE grade 0 ([2]; human, in vivo, 24 weeks): 176 | Patients, Handfoot, CTCAE grade 1 ([2]; human, in vivo, 24 weeks): 287 | Patients, Handfoot, CTCAE grade 2 ([2]; human, in vivo, 24 weeks): 331 | Patients, Handfoot, CTCAE grade 3 ([2]; human, in vivo, 24 weeks): 246 | Patients, Handfoot, CTCAE grade 4 ([2]; human, in vivo, 24 weeks): 1 | Patients, Mucositis, CTCAE grade 0 ([2]; human, in vivo, 24 weeks): 734 | Patients, Mucositis, CTCAE grade 1 ([2]; human, in vivo, 24 weeks): 248 | Patients, Mucositis, CTCAE grade 2 ([2]; human, in vivo, 24 weeks): 49 | Patients, Mucositis, CTCAE grade 3 ([2]; human, in vivo, 24 weeks): 11 | Patients, Mucositis, CTCAE grade 4 ([2]; human, in vivo, 24 weeks): 0 | Patients, Stomatitis, CTCAE grade 0 ([2]; human, in vivo, 24 weeks): 718 | Patients, Stomatitis, CTCAE grade 1 ([2]; human, in vivo, 24 weeks): 244 | Patients, Stomatitis, CTCAE grade 2 ([2]; human, in vivo, 24 weeks): 67 | Patients, Stomatitis, CTCAE grade 3 ([2]; human, in vivo, 24 weeks): 11 | Patients, Stomatitis, CTCAE grade 4 ([2]; human, in vivo, 24 weeks): 1 | Patients, Vomiting, CTCAE grade 0 ([2]; human, in vivo, 24 weeks): 817 | Patients, Vomiting, CTCAE grade 1 ([2]; human, in vivo, 24 weeks): 134 | Patients, Vomiting, CTCAE grade 2 ([2]; human, in vivo, 24 weeks): 74 | Patients, Diarrhoea, highest CTCAE grade reported during treatment: 0 ([3]; 233 colorectal and breast cancer patients, selected for high and low toxicity): 143 | Patients, Diarrhoea, highest CTCAE grade reported during treatment: 1 [3, 5]: 23 | Patients, Diarrhoea, highest CTCAE grade reported during treatment: 2 [3, 5]: 17 | Patients, Diarrhoea, highest CTCAE grade reported during treatment: 3 [3, 5]: 32 | Patients, Diarrhoea, highest CTCAE grade reported during treatment: 4 [3, 5]: 4 | Patients, Handfoot, highest CTCAE grade reported during treatment: 0 [3, 5]: 85 | Patients, Handfoot, highest CTCAE grade reported during treatment: 1 [3, 5]: 28 | Patients, Handfoot, highest CTCAE grade reported during treatment: 2 [3, 5]: 30 | Patients, Handfoot, highest CTCAE grade reported during treatment: 3 [3, 5]: 86 | Patients, Handfoot, highest CTCAE grade reported during treatment: 4 [3, 5]: 2 | Share of capecitabine patients suffering dose-limiting levels of drug-induced adverse events ([1]; background statement): approximately one third | Mortality from rapid-onset toxicity relative to infusional and bolus 5-FU regimens (0.5% to 2%) ([1]; capecitabine schedules, literature): about half that number
